Measurements as given in US6664224B2, “Quaternary ammonium salt and process for the preparation thereof” (priority 2000, dated 2003).

Assays:
[1] = system: Pseudomonas aeruginosa ATCC27583; assay: MIC by agar plate dilution method; type: cell-based; conditions: P. aeruginosa, 37° C. 24 hours
Protocol: MIC value was determined by an agar plate dilution method according to the Law of Japanese Society of Chemotherapy. In some detail, a bacteria solution in stationary state which had been adjusted with a nutrient broth such that the concentration of bacterial suspension reached 10^6 cell/ml was added to agar culture media containing chemical solutions having concentrations which vary in two stages where it was then allowed to stand at a temperature of 37° C. for 24 hours for culture. The bacteria solution was then examined to see if the proliferation of bacteria occurred. Thus, MIC was determined.
The following three kinds of bacteria were used as sample bacteria:
Pseudomonas aeruginosa ATCC27583 (P. auruginosa); and […]

Erythrocyte = assay: Minimum hemolytic activity concentration against erythrocyte; type: cell-based; conditions: human erythrocyte, 37° C. 1 hour, O.D.540, 50% hemolysis
Protocol: Human blood was collected. The sample blood was then mixed with the equal amount of alsebar solution (glucose: 2.05 g; NaCl: 0.42 g; sodium citrate: 0.8 g; citric acid: 0.55 g; pH: 6.1). The mixture was then stored at a temperature of 4° C. Shortly before used for experiment, the alsebar stored blood was subjected to centrifugal separation. Thus, the supernatant liquid and the leukocyte layer on the erythrocyte were removed. To the erythrocyte was then added PBS in an amount of […] that of the erythrocyte to obtain a 50% erythrocyte. 10 μl of the 50% erythrocyte was then mixed with 990 μl of each of chemicals which had been diluted with PBS in amounts varying stepwise. The erythrocyte was acted upon by the chemical at a temperature of 37° C. for 1 hour. The mixture was then subjected to centrifugal separation. The supernatant liquid was collected for the measurement of the optical density at 540 nm (O.D.540). Separately, the foregoing procedure was followed except that no chemicals were used to prepare a 0% hemolytic control. The foregoing procedure was followed except that Milliq water was used instead of PBS to prepare a 100% hemolytic control. For the minimum hemolytic activity concentration of chemical, the minimum concentration at which the hemolytic concentration is […] was determined.

rat = assay: Oral toxicity test on rat (LD50); type: in vivo
Protocol: The quaternary ammonium salt of the invention is a compound having an extremely high safety, i.e., LD50 (rat) of not smaller than 2,000 mg/kg in oral toxicity test on rat.
The sample 4BAMP-6C thus obtained was then determined for oral toxicity (LD50: rat). The results were greater than 2,000 mg/kg.

[2] = Interaction with eye drop components (visual transparency); type: physicochemical; conditions: for Results (transparency of neutralized solution): in 1% sodium chloride solution
Protocol: Eye drop components and the preservative of the invention were dissolved in a 1% sodium chloride solution. The solution was then neutralized with a proper amount of diluted hydrochloric acid or sodium hydroxide. The neutralized solution thus obtained was then visually observed for transparency. Chondroitin sodium sulfate (hereinafter abbreviated as “SKA”), sodium hyaluronate (hereinafter abbreviated as “SHA”), sodium cromoglicate (hereinafter abbreviated as “SCA”), sodium dimethylisopropylazulenesulfonate (hereinafter abbreviated as “SDPA”), and flavin-adenine dinucleotide (hereinafter abbreviated as “FA”) were used as the eye drop components. 4BAMP-6C (Example 1) and benzalkonium chloride (Comparative Example 1) were used as test samples of preservative.

cornea = conditions: reported; eye drop; cited from earlier work

Substance | MIC [1] | Minimum hemolytic activity concentration Erythrocyte (Erythrocyte) | oral toxicity LD50 (rat) | Results (transparency of neutralized solution) ([2]; FA 0.1%, 4BAMP-6C 0.1%) | Results (transparency of neutralized solution) ([2]; SCA 3%, 4BAMP-6C 0.1%) | Results (transparency of neutralized solution) ([2]; SDPA 0.05%, 4BAMP-6C 0.1%) | Results (transparency of neutralized solution) ([2]; SHA 0.2%, 4BAMP-6C 0.1%) | Results (transparency of neutralized solution) ([2]; SKA 3%, 4BAMP-6C 0.1%) | Results (transparency of neutralized solution) ([2]; FA 0.1%, benzalkonium chloride 0.01%) | Results (transparency of neutralized solution) ([2]; SCA 3%, benzalkonium chloride 0.01%) | Results (transparency of neutralized solution) ([2]; SDPA 0.05%, benzalkonium chloride 0.01%) | Results (transparency of neutralized solution) ([2]; SHA 0.2%, benzalkonium chloride 0.01%) | Results (transparency of neutralized solution) ([2]; SKA 3%, benzalkonium chloride 0.01%) | transparency of solutions with eye drop components ([2]; summary of Table 9) | amount incorporated at which the cornea is damaged (cornea)
1,4-bis(N,N-dihexyl-N-methylammoniomethyl)phenylene dichloride [Example 4BAMP-6C] | <2 ppm | 400 ppm | greater than 2,000 mg/kg | Transparent | Transparent | Transparent | Transparent | Transparent | – | – | – | – | – | – | –
benzalkonium chloride [reference compound] | 8 ppm | 25 ppm | – | – | – | – | – | – | Clouded | Clouded | Clouded | Clouded | Clouded | slightly opaque | ≥ 0.01%
